Experimental data as given in PubChem BioAssay AID248 (DTP/NCI, 2004).
Several values for one entry are separate records, joined by “and”; a condition that tells them apart may be missing. Identical values can stand only once. Toxic doses and inconclusive results are not listed. Rule as the data show it: active = T/C of 150% or more; inactive = T/C below 125%.

Test system: L1210 leukemia ip in BDF1 mice, survival T/C
Assay: NCI In Vivo Anticancer Drug Screen. Data for tumor model L1210 Leukemia (intraperitoneal) in B6D2F1 (BDF1) mice
Conditions: endpoint: mean survival time, higher = longer survival
Outline: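 Transplantable tumor model; survival measured in treated vs vehicle control mice. Value = treated/control.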

[1] = dose: 25.0 mg/kg/injection, schedule: Q04DX003 (ip), vehicle: saline
[2] = dose: 50.0 mg/kg/injection, schedule: Q01DX001 (ip), vehicle: saline
[3] = dose: 50.0 mg/kg/injection, schedule: Q01DX009 (ip), vehicle: saline
[4] = dose: 50.0 mg/kg/injection, schedule: Q04DX003 (ip), vehicle: saline
[5] = dose: 100.0 mg/kg/injection, schedule: Q01DX001 (ip), vehicle: saline
[6] = dose: 100.0 mg/kg/injection, schedule: Q04DX003 (ip), vehicle: saline
[7] = dose: 100.0 mg/kg/injection, schedule: Q01DX009 (ip), vehicle: Klucel (hydroxypropylcellulose) (HPC)
[8] = dose: 100.0 mg/kg/injection, schedule: Q01DX001 (ip), vehicle: carboxymethylcellulose (CMC)
[9] = dose: 200.0 mg/kg/injection, schedule: Q01DX001 (ip), vehicle: carboxymethylcellulose (CMC)
[10] = dose: 400.0 mg/kg/injection, schedule: Q01DX001 (ip), vehicle: carboxymethylcellulose (CMC)
[11] = dose: 100.0 mg/kg/injection, schedule: Q04DX002 (ip), vehicle: Klucel (hydroxypropylcellulose) (HPC)
[12] = dose: 200.0 mg/kg/injection, schedule: Q04DX002 (ip), vehicle: Klucel (hydroxypropylcellulose) (HPC)
[13] = dose: 200.0 mg/kg/injection, schedule: Q01DX001 (ip), vehicle: saline
[14] = dose: 400.0 mg/kg/injection, schedule: Q01DX001 (ip), vehicle: saline
[15] = dose: 200.0 mg/kg/injection, schedule: Q04DX003 (ip), vehicle: saline
[16] = dose: 400.0 mg/kg/injection, schedule: Q04DX003 (ip), vehicle: saline
[17] = dose: 100.0 mg/kg/injection, schedule: Q04DX003 (ip), vehicle: Klucel (hydroxypropylcellulose) (HPC)
[18] = dose: 100.0 mg/kg/injection, schedule: Q01DX009 (ip), vehicle: saline
[19] = dose: 200.0 mg/kg/injection, schedule: Q01DX009 (ip), vehicle: saline
[20] = dose: 75.0 mg/kg/injection, schedule: Q01DX001 (ip), vehicle: carboxymethylcellulose (CMC)

Measured: T/C

COc1c(C)c(C)c(OC)c(C(C)O)c1C (stereo not given)
inactive: dose: 100.0 mg/kg/injection, schedule: Q04DX003 (ip), vehicle: other 92 % of control | dose: 200.0 mg/kg/injection, schedule: Q04DX003 (ip), vehicle: other 100 % of control | dose: 400.0 mg/kg/injection, schedule: Q04DX003 (ip), vehicle: other 97 % of control

O=C(NOS(=O)(=O)O)c1ccccc1
inactive: dose: 25.0 mg/kg/injection, schedule: Q01DX001 (ip), vehicle: saline 94 % of control | dose: 25.0 mg/kg/injection, schedule: Q01DX009 (ip), vehicle: saline 110 % of control | [1] 98 % of control | [2] 99 % of control | [3] 97 % of control | [4] 100 % of control | [5] 100 % of control and 104 % of control | [6] 100 % of control

Cc1ccc(N)c2cccnc12
inactive: [7] 93 % of control

COc1ccccc1CCO
inactive: dose: 50.0 mg/kg/injection, schedule: Q01DX001 (ip), vehicle: carboxymethylcellulose (CMC) 86 % of control | [8] 98 % of control | [9] 98 % of control | [10] 98 % of control

CCC(C(=O)Cl)c1ccc(-c2ccccc2)cc1 (stereo not given)
inactive: dose: 50.0 mg/kg/injection, schedule: Q01DX001 (ip), vehicle: saline with Tween-80 96 % of control | dose: 100.0 mg/kg/injection, schedule: Q01DX001 (ip), vehicle: saline with Tween-80 96 % of control | dose: 200.0 mg/kg/injection, schedule: Q01DX001 (ip), vehicle: saline with Tween-80 96 % of control

O=C(O)c1cc(F)ccc1F
inactive: [11] 97 % of control | [12] 108 % of control

O=C(O)c1ccc(F)c([N+](=O)[O-])c1
inactive: dose: 100.0 mg/kg/injection, schedule: Q04DX002 (ip), vehicle: saline 102 % of control | dose: 200.0 mg/kg/injection, schedule: Q04DX002 (ip), vehicle: saline 113 % of control | dose: 400.0 mg/kg/injection, schedule: Q04DX002 (ip), vehicle: saline 107 % of control

CN(C)C1(Cc2ccccc2)c2ccccc2-c2ccccc21
inactive: dose: 50.0 mg/kg/injection, schedule: Q04DX002 (ip), vehicle: Klucel (hydroxypropylcellulose) (HPC) 103 % of control | [11] 106 % of control | [12] 95 % of control

CCCCCCCCCC(F)CCCCCCCC(=O)O (stereo not given) (tested in a mixture with another compound)
inactive: [5] 91 % of control | [13] 91 % of control | [14] 95 % of control

O=c1[nH]cnc2c1nnn2C1CC(O)C(CO)O1 (stereo not given)
inactive: [2] 106 % of control | [5] 116 % of control | [6] 100 % of control | [15] 103 % of control | [16] 111 % of control

O=[N+]([O-])c1cnc2ccnn2c1
inactive: [7] 101 % of control | [17] 100 % of control | dose: 200.0 mg/kg/injection, schedule: Q01DX009 (ip), vehicle: Klucel (hydroxypropylcellulose) (HPC) 97 % of control | dose: 200.0 mg/kg/injection, schedule: Q04DX003 (ip), vehicle: Klucel (hydroxypropylcellulose) (HPC) 92 % of control | dose: 400.0 mg/kg/injection, schedule: Q01DX009 (ip), vehicle: Klucel (hydroxypropylcellulose) (HPC) 111 % of control | dose: 400.0 mg/kg/injection, schedule: Q04DX003 (ip), vehicle: Klucel (hydroxypropylcellulose) (HPC) 100 % of control

Cc1cc(C)c(S(=O)(=O)c2c(C)cc(C)cc2C)c(C)c1
inactive: dose: 25.0 mg/kg/injection, schedule: Q04DX003 (ip), vehicle: Klucel (hydroxypropylcellulose) (HPC) 100 % of control | dose: 50.0 mg/kg/injection, schedule: Q04DX003 (ip), vehicle: Klucel (hydroxypropylcellulose) (HPC) 93 % of control | [17] 88 % of control

OC1CCCSC1 (stereo not given)
inactive: [18] 102 % of control | [6] 96 % of control | [19] 98 % of control | [15] 100 % of control | dose: 400.0 mg/kg/injection, schedule: Q01DX009 (ip), vehicle: saline 98 % of control | [16] 89 % of control

C=C(C)C(=Nc1ccc(Cl)c(Cl)c1)N(C)C
inactive: dose: 55.0 mg/kg/injection, schedule: Q01DX Z (ip), vehicle: methylcellulose (MC) 98 % of control | dose: 83.0 mg/kg/injection, schedule: Q01DX Z (ip), vehicle: methylcellulose (MC) 93 % of control | dose: 125.0 mg/kg/injection, schedule: Q01DX Z (ip), vehicle: methylcellulose (MC) 93 % of control

COC(=O)c1ccc(OC(=O)Nc2ccc(C)c(NC(=O)Oc3ccc(C(=O)OC)cc3)c2)cc1
inactive: dose: 50.0 mg/kg/injection, schedule: Q01DX009 (ip), vehicle: saline with Tween-80 96 % of control | dose: 100.0 mg/kg/injection, schedule: Q01DX009 (ip), vehicle: saline with Tween-80 96 % of control | dose: 200.0 mg/kg/injection, schedule: Q01DX009 (ip), vehicle: saline with Tween-80 101 % of control

CCCCNC(=O)n1ncc2cc([N+](=O)[O-])c([N+](=O)[O-])cc21
inactive: [5] 103 % of control | [13] 97 % of control | [14] 101 % of control

CS(=O)(=O)Oc1ccc2c(c1)CCC2
inactive: [8] 104 % of control | [9] 101 % of control | [10] 95 % of control

O=C(O)c1c(Cl)c([N+](=O)[O-])cc([N+](=O)[O-])c1Cl
inactive: [3] 92 % of control | [18] 92 % of control | [6] 103 % of control | [19] 92 % of control | [15] 99 % of control

CC1(C)CS(=O)(=O)CC1=O
inactive: dose: 3.0 mg/kg/injection, schedule: Q01DX009 (ip), vehicle: other 103 % of control | dose: 6.0 mg/kg/injection, schedule: Q01DX009 (ip), vehicle: other 102 % of control | dose: 12.0 mg/kg/injection, schedule: Q01DX009 (ip), vehicle: other 94 % of control | dose: 12.0 mg/kg/injection, schedule: Q04DX003 (ip), vehicle: saline 98 % of control | dose: 25.0 mg/kg/injection, schedule: Q01DX009 (ip), vehicle: other 100 % of control | [1] 101 % of control | dose: 50.0 mg/kg/injection, schedule: Q01DX009 (ip), vehicle: other 96 % of control | [4] 106 % of control

CCOP(=O)(OCC)N1CC1c1ccccc1 (stereo not given)
inactive: [20] 114 % of control

Cc1nsc(N(NC(=O)c2ccccc2)C(=O)c2ccccc2)n1
inactive: [20] 95 % of control

COc1ccc(N=C=S)cc1N=C=S
inactive: dose: 6.25 mg/kg/injection, schedule: Q01DX009 (ip), vehicle: saline with Tween-80 101 % of control | dose: 12.5 mg/kg/injection, schedule: Q01DX009 (ip), vehicle: saline with Tween-80 103 % of control | dose: 25.0 mg/kg/injection, schedule: Q01DX009 (ip), vehicle: saline with Tween-80 104 % of control
